Results: patent publication US20110038885A1, “CHEMOKINE ANALOGS” (priority 2007, published 2011)
Numbered stars: 1 amine (or outer) side, 2 acyl side, 3 side chain; on linkers, the order of the positions; unused ones are H or OH. Bridge positions count the residues as written; N and C are the ends. Square brackets hold non-standard residues; d marks the D form. Peptide text beside a SMILES is read from it. * marks the point of attachment. Benzoyl(4-Ph) = O=C(c1ccc(-c2ccccc2)cc1)*; NH(CH2)8CO = O=C(CCCCCCCCN[*:1])[*:2]; Diglycolyl = O=C(COCC(=O)[*:2])[*:1]; Glutaryl = O=C(CCCC(=O)[*:2])[*:1]; Lauroyl = CCCCCCCCCCCC(=O)*; hCys = N[C@@H](CCS)C(=O)O; Isobutyryl = CC(C)C(=O)*; Orn = NCCC[C@H](N)C(=O)O; X5 = O=C(/C=C/c1ccccc1)*; Dab = NCC[C@H](N)C(=O)O; Dap = NC[C@H](N)C(=O)O; Piv = CC(C)(C)C(=O)*; Butyryl = CCCC(=O)*; Ahx = NCCCCCC(=O)O; Ava = NCCCCC(=O)O; βAla = NCCC(=O)O

Test system: MCP-1
Test: In vitro chemotaxis (trans-well migration) v MCP-1
Type: cell-based, human
Protocol: To determine whether an agent inhibits a chemokine-induced activity, such as macrophage recruitment, varying amounts of the agent are mixed with cells in the presence of a known chemoattractant. For example, a range of known concentrations of an agent, e.g., a chemokine peptide, is incubated with a defined number (e.g., 10^4-10^6) of human THP-1 monocyte cells in individual wells of the top compartment of a trans-well plate. Chemokine, at a concentration known to cause significant migration of THP-1 cells in the trans-well migration assay, is placed in the lower compartment of a trans-well plate. Cells are then incubated at 37° C. for a period sufficient to allow migration, e.g., 4 hours. After incubation, the cells are gently removed from the top of the filter with a pipette, 20 μl of 20 mM EDTA in simple PBS is added into each top well, and incubated for 20 minutes at 4° C. The filter is carefully flushed with media using a gentle flow, and removed. A standard curve consisting of a two-fold dilution series of THP-1 cells (in 29 μl) is placed to accurately quantify the number of cells that have migrated. Migrated cells are stained with 3 μl of MTT stock dye solution which is added directly into each well (5 mg/ml in RPMI-1640 without phenol red) (Sigma Chemical Co., St. Louis, Mo., USA) and incubated at 37° C. for 4 hours. The media is carefully aspirated from each well, and the converted dye is solubilized by 20 μl of DMSO. Absorbance of converted dye is measured at a wavelength of 595 nm using an ELISA plate reader. The number of migrated cells in each well is then determined by interpolation of the standard curve (see also Imai et al., J. Biol. Chem., 272:15036, 1997). Any method suitable for counting cells can be used, for example, counting with a hemocytometer, incubation of the cells with MTT (see above), or FACS analysis. A negative control assay is also performed, using TGFβ or another non-chemokine chemoattractant (e.g., IL1β or TNFα). To assess whether the agent is cytotoxic, the same concentrations of agent are incubated with THP-1 cells. Agents which 1) are not cytotoxic at levels which inhibit migration, 2) are ineffective at inhibiting the negative control-induced migration, and 3) reduce or inhibit chemokine-induced THP-1 migration, are agents which fall within the scope of the invention.

Row | EC50 [nM] | Molecule
1 | 8 | CC[C@H](C)[C@@H]1NC(=O)[C@H](Cc2c[nH]c3ccccc23)NC(=O)[C@H](CCCCN)NC(=O)[C@@H](NC(=O)c2ccc(-c3ccccc3)cc2)CSSC[C@@H](C(N)=O)NC(=O)[C@H](CCC(N)=O)NC1=O [Example 67, 4-Biphenylcarboxyl-c(Cys-Lys-Trp-Ile-Gln-Cys)-NH2] ({Benzoyl(4-Ph)}-CKWIQC-NH2; disulfide 1-6)
2 | 50 | CC[C@H](C)[C@@H]1NC(=O)[C@@H](NC(=O)[C@@H](N)Cc2c[nH]c3ccccc23)CSSC[C@@H](C(N)=O)NC(=O)[C@H](CCC(N)=O)NC1=O [Example 85, Trp-c(Cys-Ile-Gln-Cys)-NH2] (H-WCIQC-NH2; disulfide 2-5)
3 | 5 | CC[C@H](C)[C@@H]1NC(=O)[C@H](Cc2c[nH]c3ccccc23)NC(=O)[C@H](CCCCN)NC(=O)[C@@H](NC(C)=O)CNC(=O)C[C@@H](C(N)=O)NC(=O)[C@H](CCC(N)=O)NC1=O [Example 117, Ac-c(Dap-Lys-Trp-Ile-Gln-Asp)-NH2] (Ac-[Dap]KWIQD-NH2; lactam 1-6)
4 | 8 | CC[C@H](C)[C@H](NC(=O)[C@H](Cc1c[nH]c2ccccc12)NC(=O)[C@H](CCCCN)NC(=O)[C@H](CCCN)NC(=O)C(C)C)C(=O)N[C@@H](CCC(N)=O)C(=O)N[C@@H](CC(=O)O)C(N)=O [Example 202, Isobutyryl-Orn-Lys-Trp-Ile-Gln-Asp-NH2] (Isobutyryl-[Orn]KWIQD-NH2)
5 | 5 | CC[C@H](C)[C@@H]1NC(=O)[C@H](Cc2c[nH]c3ccccc23)NC(=O)[C@H](CCCCN)NC(=O)[C@@H](NC(=O)C(C)C)CC(=O)NC[C@@H](C(N)=O)NC(=O)[C@H](CCC(N)=O)NC1=O [Example 6, Isobutyryl-c(Asp-Lys-Trp-Ile-Gln-Dap)-NH2] (Isobutyryl-DKWIQ[Dap]-NH2; lactam 1-6)
6 | 15 | CC[C@H](C)[C@@H]1NC(=O)[C@H](Cc2c[nH]c3ccccc23)NC(=O)[C@H](CCCCN)NC(=O)[C@@H](NC(=O)C(C)C)CCNC(=O)C[C@@H](C(N)=O)NC(=O)[C@H](CCC(N)=O)NC1=O [Example 105, Isobutyryl-c(Dab-Lys-Trp-Ile-Gln-Asp)-NH2] (Isobutyryl-[Dab]KWIQD-NH2; lactam 1-6)
7 | 10 | CC[C@H](C)[C@@H]1NC(=O)[C@H](Cc2c[nH]c3ccccc23)NC(=O)[C@H](CCCCN)NC(=O)[C@@H](NC(=O)C(C)(C)C)CSSC[C@@H](C(N)=O)NC(=O)[C@H](CCC(N)=O)NC1=O [Example 66, Trimethylacetyl-c(Cys-Lys-Trp-Ile-Gln-Cys)-NH2] (Piv-CKWIQC-NH2; disulfide 1-6)
8 | 15 | CC[C@H](C)[C@@H]1NC(=O)[C@H](Cc2c[nH]c3ccccc23)NC(=O)[C@H](CCCCN)NC(=O)CCCCCCCCNC(=O)CC[C@@H](C(N)=O)NC(=O)[C@H](CCC(N)=O)NC1=O [Example 98, c(Anc-Lys-Trp-Ile-Gln-Glu)-NH2] ([NH(CH2)8CO]KWIQE-NH2; lactam N-6)
9 | 400 | CC[C@H](C)[C@@H]1NC(=O)[C@H](Cc2c[nH]c3ccccc23)NC(=O)[C@H](CCCCN)NC(=O)CCCC(=O)NCCCC[C@@H](C(N)=O)NC(=O)[C@H](CCC(N)=O)NC1=O [Example 129, c(Glutaryl-Lys-Trp-Ile-Gln-Lys)-NH2] (KWIQK-NH2; linker N-5 via Glutaryl)
10 | 6 | CC[C@H](C)[C@@H]1NC(=O)[C@H](Cc2c[nH]c3ccccc23)NC(=O)[C@H](CCCCN)NC(=O)[C@@H](NC(C)=O)CC(=O)NCCC[C@@H](C(N)=O)NC(=O)[C@H](CCC(N)=O)NC1=O [Example 112, Ac-c(Asp-Lys-Trp-Ile-Gln-Orn)-NH2] (Ac-DKWIQ[Orn]-NH2; lactam 1-6)
11 | 5 | CC[C@H](C)[C@@H]1NC(=O)[C@H](Cc2c[nH]c3ccccc23)NC(=O)[C@H](CCCCN)NC(=O)CCCC(=O)NCCC[C@@H](C(N)=O)NC(=O)[C@H](CCC(N)=O)NC1=O [Example 8, c(Glutaryl-Lys-Trp-Ile-Gln-Orn)-NH2] (KWIQ[Orn]-NH2; linker N-5 via Glutaryl)
12 | 5 | CC[C@H](C)[C@@H]1NC(=O)[C@H](Cc2c[nH]c3ccccc23)NC(=O)[C@H](CCCCN)NC(=O)CCCCCNC(=O)C[C@@H](C(N)=O)NC(=O)[C@H](CCC(N)=O)NC1=O [Example 5, c(Ahx-Lys-Trp-Ile-Gln-Asp)-NH2] ([Ahx]KWIQD-NH2; lactam N-6)
13 | 50 | CC[C@H](C)[C@@H]1NC(=O)[C@H](Cc2c[nH]c3ccccc23)NC(=O)[C@H](CCCCN)NC(=O)COCC(=O)NC[C@@H](C(N)=O)NC(=O)[C@H](CCC(N)=O)NC1=O [Example 130, c(Diglycolyl-Lys-Trp-Ile-Gln-Dap)-NH2] (KWIQ[Dap]-NH2; linker N-5 via Diglycolyl)
14 | 8 | CC[C@H](C)[C@@H]1NC(=O)[C@H](Cc2c[nH]c3ccccc23)NC(=O)[C@H](CCCCN)NC(=O)[C@@H](NC(=O)/C=C/c2ccccc2)CSSC[C@@H](C(N)=O)NC(=O)[C@H](CCC(N)=O)NC1=O [Example 72, trans-Ciimamoyl-c(Cys-Lys-Trp-Ile-Gln-Cys)-NH2] (X5-CKWIQC-NH2; disulfide 1-6)
15 | 20 | CC[C@H](C)[C@@H]1NC(=O)[C@H](Cc2c[nH]c3ccccc23)NC(=O)[C@H](CCCCN)NC(=O)CSCC[C@@H](C(N)=O)NC(=O)[C@H](CCC(N)=O)NC1=O [Example 4, (Ac=Lys=Trp=Ile=Gln=hCyc)=NH2] ({CH2CO}-KWIQ[hCys]-NH2; thioether N-5)
16 | 60 | CC[C@H](C)[C@@H]1NC(=O)[C@H](Cc2c[nH]c3ccccc23)NC(=O)[C@H](CCCCN)NC(=O)[C@H](NC(C)=O)CSSC[C@@H](C(N)=O)NC(=O)[C@H](CCC(N)=O)NC1=O [Example 79, Ac-c(D-Cys-Lys-Trp-Ile-Gln-Cys)-NH2] (Ac-[dC]KWIQC-NH2; disulfide 1-6)
17 | 4 | CC[C@H](C)[C@@H]1NC(=O)[C@H](Cc2c[nH]c3ccccc23)NC(=O)[C@H](CCCCN)NC(=O)[C@@H](NC(=O)C(C)C)CCC(=O)NCC[C@@H](C(N)=O)NC(=O)[C@H](CCC(N)=O)NC1=O [Example 101, Isobutyryl-c(Glu-Lys-Trp-Ile-Gln-Dab)-NH2] (Isobutyryl-EKWIQ[Dab]-NH2; lactam 1-6)
18 | 10 | CC[C@H](C)[C@@H]1NC(=O)[C@H](Cc2c[nH]c3ccccc23)NC(=O)[C@H](CCCCN)NC(=O)[C@@H](NC(=O)C(C)C)CCC(=O)NCCC[C@@H](C(N)=O)NC(=O)[C@H](CCC(N)=O)NC1=O [Example 102, Isobutyryl-c(Glu-Lys-Trp-Ile-Gln-Orn)-NH2] (Isobutyryl-EKWIQ[Orn]-NH2; lactam 1-6)
19 | 15 | CCCCCCCCCCCC(=O)N[C@H]1CSSC[C@@H](C(N)=O)NC(=O)[C@H](CCC(N)=O)NC(=O)[C@H]([C@@H](C)CC)NC(=O)[C@H](Cc2c[nH]c3ccccc23)NC(=O)[C@H](CCCCN)NC1=O [Example 84, Dodecanoyl-c(Cys-Lys-Trp-Ile-Gln-Cys)-NH2] (Lauroyl-CKWIQC-NH2; disulfide 1-6)
20 | 30 | CC[C@H](C)[C@@H]1NC(=O)[C@H](Cc2c[nH]c3ccccc23)NC(=O)[C@H](CCCCN)NC(=O)CSC[C@@H](C(N)=O)NC(=O)[C@H](CCC(N)=O)NC1=O [Example 65, c(Ac-Lys-Trp-Ile-Gln-Cys)-NH2] ({CH2CO}-KWIQC-NH2; thioether N-5)
21 | 8 | CC[C@H](C)[C@@H]1NC(=O)[C@H](Cc2c[nH]c3ccccc23)NC(=O)[C@H](CCCCN)NC(=O)[C@@H](NC(C)=O)CCC(=O)NCC[C@@H](C(N)=O)NC(=O)[C@H](CCC(N)=O)NC1=O [Example 114, Ac-c(Glu-Lys-Trp-Ile-Gln-Dab)-NH2] (Ac-EKWIQ[Dab]-NH2; lactam 1-6)
22 | 25 | CCCC(=O)N[C@H]1CSSC[C@@H](C(N)=O)NC(=O)[C@H](CCC(N)=O)NC(=O)[C@H]([C@@H](C)CC)NC(=O)[C@H](Cc2c[nH]c3ccccc23)NC(=O)[C@H](CCCCN)NC1=O [Example 56, nButyryl-c(Cys-Lys-Trp-Ile-Gln-Cys)-NH2] (Butyryl-CKWIQC-NH2; disulfide 1-6)
23 | 66 | [aminoPeg10-oxaglutaryl]-c(D-Cys-D-Gln-D-Ile-D-Trp-D-Lys-D-Gln-D-Lys-D-Pro-D-Asp-D-Leu-D-Cys)-NH2 [Example 187]
24 | 9 | CC[C@H](C)[C@@H]1NC(=O)[C@H](Cc2c[nH]c3ccccc23)NC(=O)[C@H](CCCCN)NC(=O)CCCCNC(=O)CC[C@@H](C(N)=O)NC(=O)[C@H](CCC(N)=O)NC1=O [Example 91, c(Apn-Lys-Trp-Ile-Gln-Glu)-NH2] ([Ava]KWIQE-NH2; lactam N-6)
25 | 20 | CC[C@H](C)[C@@H]1NC(=O)[C@H](Cc2c[nH]c3ccccc23)NC(=O)[C@H](CCCCN)NC(=O)CCNC(=O)CC[C@@H](C(N)=O)NC(=O)[C@H](CCC(N)=O)NC1=O [Example 89, c((βAla-Lys-Trp-Ile-Gln-Glu)-NH2] ([βAla]KWIQE-NH2; lactam N-6)
